Experimental data taken from paper PMC6468543, “Rational Design, Synthesis and Preliminary Evaluation of Novel Fusarinine C-Based Chelators for Radiolabeling with Zirconium-89” (Biomolecules, 2019).
Entries after “also recorded” stand apart in the source; their conditions may differ. Like-named read-outs stand apart in the source and are kept apart here.

Columns and labels:
[1] = Stability assay in human serum; type: in vitro ADME; conditions: 37 °C, incubation time 7 days
Description: (§1) Determination of the stability of [^89Zr]Zr-DFO, [^89Zr]Zr-TAFC, [^89Zr]Zr-FSC(succ)2AA and [^89Zr]Zr-FSC(succ)3 was carried out by incubating the radioligands in PBS, a 1000-fold molar excess of ethylenediaminetetraacetic acid (EDTA) solution (radioligand vs. […] Then, the precipitate was washed three times using CH3CN before analysis.

[2] = Acid dissociation study in 1000-fold molar excess of EDTA solution; type: physicochemical
Description: as §1

[3] = Transchelation study: 89Zr-FSC derivative complexes with 1000-fold molar excess of DFO; type: physicochemical; conditions: RT, after 7 days
Description: (§2) [^89Zr]Zr-DFO (50 µL) was mixed with a 1000-fold molar excess of either FSC(succ)2AA or FSC(succ)3 and [^89Zr]Zr-TAFC (or [^89Zr]Zr-FSC(succ)2AA, [^89Zr]Zr-FSC(succ)3) (50 µL each) was mixed with a 1000-fold molar excess of DFO and incubated for seven days at RT. At selected time points, aliquots of the solutions were analyzed in triplicate directly via analytical RP-HPLC. The transchelation was determined by the ratio of [^89Zr]Zr-DFO and [^89Zr]Zr-FSC derivatives.

[4] = Distribution coefficient (logD), octanol/PBS; type: physicochemical; conditions: n = 5
Description: A volume of 500 µL PBS including 0.5 MBq radioligand ([^89Zr]Zr-FSC(succ)2AA or [^89Zr]Zr-FSC(succ)3) was combined with 500 µL octanol. The mixture was vortexed for 15 min, and centrifuged for 2 min at 2000 rcf. Subsequently, 50 µL aliquots of the aqueous and the octanol layer were collected, measured in a 2480 Wizard^2 Automatic Gamma Counter (Perkin Elmer, Vienna, Austria), and distribution coefficient (logD) values were calculated using Excel 2013 (n = 5) (Redmond, WA, USA).

[5] = Protein binding assay in fresh human serum (size exclusion spin column); type: in vitro ADME; conditions: 37 °C, incubation time 7 days
Description: The protein binding property was evaluated by incubating [^89Zr]Zr-FSC(succ)2AA or [^89Zr]Zr-FSC(succ)3 for seven days at 37 °C in fresh human serum. Subsequently, 30 µL of the solution was passed through a size exclusion spin column (MicroSpinG-50 column, GE Healthcare, Buckinghamshire, UK) via centrifugation at 2000 rcf for 2 min. Protein binding of the complexes in triplicate was determined by measuring the activity on the column (non-protein bound) and the activity in the eluate (protein bound) in the gamma counter.

[6] = MicroPET/CT imaging, image-based quantitation of bone uptake (knee); type: in vivo, BALB/c mice; conditions: BALB/c mouse, i.v., 24 h p.i., mean of left and right knees, n = 1
Description: Micro-Positron Emission Tomography/computer tomography (MicroPET/CT) imaging studies were carried out using an Inveon microPET/CT scanner (Siemens Preclinical Solutions, Knoxville, TN, USA). Healthy female BALB/c mice were injected intravenously with 5 MBq of either [^89Zr]Zr-FSC(succ)3 (16 µg, n = 1) or [^89Zr]Zr-TAFC (13 µg, n = 1). MicroPET/CT images were acquired under general anesthesia (isoflurane/O2) for 20 min. Imaging data were recorded via static scans at 80 min and 24 h p.i. The microPET/CT scans were reconstructed and merged with OSEM3D-SPMAP (PET, matrix size 256 × 256) and Feldkamp (CT, Shepp Logan filter). For evaluation of bone uptake, image-based quantitation was carried out by selecting volumes of interest around each knee region and % ID/cm^3 were calculated for both time points (VivoQuant image analysis software, Invicro LLC, Boston, MA, USA) and expressed as mean values of left and right knees to compare both compounds.

[7] = Biodistribution study in BALB/c mice; type: in vivo; conditions: i.v., 6 h p.i., n = 4
Description: For the evaluation of biodistribution, four female BALB/c mice (Charles River Laboratories, Sulzfeld, Germany) were intravenously injected with [^89Zr]Zr-FSC(succ)3 (1.5 MBq/mouse, 4.8 µg precursor) or [^89Zr]Zr-TAFC (1.5 MBq/mouse, 4 µg) into the tail vein and sacrificed by cervical dislocation at 6 h post injection (p.i.). Organs (spleen, pancreas, stomach, intestine, kidney, liver, heart, and lung), blood, muscle tissue, and bone were dissected, weighed and then measured in the gamma counter to calculate the percentage of injected dose per gram of tissue (% ID/g). Statistical analysis was performed using an independent two-population t-test (significance level p = 0.05) and Origin 6.1 software (Northampton, MA, USA).

Solubility in water = type: physicochemical; conditions: unlabeled chelator
[8] = parameters: method as in PMID 25941834; conditions: human serum, incubation time 7 days, previously reported data; cited from earlier work
[9] = Transchelation study: [89Zr]Zr-DFO with 1000-fold molar excess of FSC(succ)2AA or FSC(succ)3; type: physicochemical; conditions: 1000-fold molar excess of FSC(succ)2AA or FSC(succ)3, RT, within 1 h
Description: as §2

[10] = parameters: method as in PMID 25941834; conditions: previously reported data; cited from earlier work
[11] = parameters: method as in PMID 25941834; conditions: incubation time 7 days, previously reported data; cited from earlier work

Row | Structure (SMILES) | Stability in Human Serum (%) [1] | intact complex ([2]; pH 6, 37 °C) | resistance to transchelation ([2]; pH 7, over seven days, 37 °C) | intact complex [3] | Log D [4] | Protein Binding (%) [5] | bone uptake in the knee [6] | intact complex ([2]; pH 4, day 7, 37 °C) | activity in blood [7] | solubility in water (Solubility in water) | Protein Binding (%) [8] | Log D [10] | Stability in Human Serum (%) [11] | other results
1 | CC(=O)NC1CCCN([O-])C(=O)C=C(C)CCOC(=O)C(NC(=O)CCC(=O)[O-])CCCN([O-])C(=O)C=C(C)CCOC(=O)C(NC(=O)CCC(=O)[O-])CCCN([O-])C(=O)C=C(C)CCOC1=O.[89Zr+4] (mixture of isomers) [[^89Zr]Zr-FSC(succ)2AA] | 99.4% | 76% | excellent resistance to transchelation | 30.8% | −3.3 ± 0.1 | 5.9 ± 1.6% | – | – | – | – | – | – | – | –
2 | CC1=CC(=O)N([O-])CCCC(NC(=O)CCC(=O)[O-])C(=O)OCCC(C)=CC(=O)N([O-])CCCC(NC(=O)CCC(=O)O)C(=O)OCCC(C)=CC(=O)N([O-])CCCC(NC(=O)CCC(=O)[O-])C(=O)OCC1.[89Zr+4] (mixture of isomers) [[^89Zr]Zr-FSC(succ)3] | 99.5% | 97.8% | excellent resistance to transchelation | 62.1% | −3.5 ± 0.4 | 8.3 ± 3.5% | 0.026 % ID/cm^3 | 87.9% | 0.11 ± 0.08 % ID/g | – | – | – | – | activity in bone [7]: 0.24 ± 0.04 % ID/g; activity in heart [7]: 0.28 ± 0.08 % ID/g; activity in lung [7]: 0.21 ± 0.04 % ID/g; activity in muscle [7]: 0.25 ± 0.07 % ID/g
3 | CC(=O)NC1CCCN(O)C(=O)/C=C(/C)CCOC(=O)C(NC(=O)CCC(=O)O)CCCN(O)C(=O)/C=C(/C)CCOC(=O)C(NC(=O)CCC(=O)O)CCCN(O)C(=O)/C=C(/C)CCOC1=O (stereo not drawn) [FSC(succ)2AA, Fusarinine C(succ)2AA] | – | – | – | – | – | – | – | – | – | high solubility in water | – | – | – | –
4 | C/C1=C/C(=O)N(O)CCCC(NC(=O)CCC(=O)O)C(=O)OCC/C(C)=C\C(=O)N(O)CCCC(NC(=O)CCC(=O)O)C(=O)OCC/C(C)=C\C(=O)N(O)CCCC(NC(=O)CCC(=O)O)C(=O)OCC1 (stereo not drawn) [FSC(succ)3, Fusarinine C (succ)3] | – | – | – | – | – | – | – | – | – | high solubility in water | – | – | – | –
5 | CC(=O)N([O-])CCCCCNC(=O)CCC(=O)N([O-])CCCCCNC(=O)CCC(=O)N([O-])CCCCCN.[89Zr+4] [[^89Zr]Zr-DFO, ^89Zr-desferrioxamine B] | – | – | – | – | – | – | – | – | – | – | 8.7 ± 1.0% | −3.0 ± 0.1 | 99.3% | acid dissociation (decomposition) ([2]; pH 4): totally decomposing on day 3; transchelation ([2]; pH 7, over seven days, 37 °C): ~60%; transchelation of 89Zr from [89Zr]Zr-DFO to FSC(succ)2AA or FSC(succ)3 [9]: Almost quantitative transchelation; also recorded: total transchelation
6 | CC(=O)NC1CCCN([O-])C(=O)/C=C(/C)CCOC(=O)C(NC(C)=O)CCCN([O-])C(=O)/C=C(/C)CCOC(=O)C(NC(C)=O)CCCN([O-])C(=O)/C=C(/C)CCOC1=O.[89Zr+4] (stereo not drawn) [[^89Zr]Zr-TAFC, ^89Zr-triacetylfusarinine C, reference compound] | – | 94.4% | excellent resistance to transchelation | 39.8% | – | – | 0.016 % ID/cm^3 | 70.3% | 0.05 ± 0.01 % ID/g | – | 6.8 ± 0.5% | −2.0 ± 0.0 | 99.5% | –
